This note sets out measurements from US20250328351A1, “CARBONIC ANHYDRASE INHIBITORS AND ANTIBIOTICS AGAINST MULTIDRUG RESISTANT BACTERIA” (Purdue Research Foundation, priority 2018, published 2025).

Series [1] concerns Enterococcus faecalis S613 HM-334. In words: MIC, broth microdilution (CLSI). Particulars: Enterococcus faecalis, read-out: MIC. The format is cell-based.
In series [2] the test system is MRSA NRS 384 (MRSA USA300). The experiment in a line: MIC, broth microdilution (CLSI). The series is classed as cell-based. To be noted: Staphylococcus aureus; Table 2; TSB. How it is done: (§1) The minimum inhibitory concentrations (MICs) of the compounds and control drugs were determined using the broth microdilution method, according to guidelines outlined by the Clinical and Laboratory Standards Institute (CLSI)^1. Staphylococci strains were grown aerobically overnight on tryptone soya agar plates at 37° C., afterwards a bacterial solution equivalent to 0.5 McFarland standard was prepared and diluted in tryptone soy broth (TSB) to achieve a bacterial concentration of about 5×10^5 CFU/mL and seeded in 96-well well plates. Compounds and control drugs were added in the first row of the 96-well plates and serially diluted along the plates. Plates were then incubated aerobically at 37° C. for 18-20 hours. MICs reported in Table 2 are the minimum concentration of the compounds/control drugs that could inhibit completely the visual growth of the bacteria.

The subject of series [3] is Staphylococcus epidermidis NRS 101. The experiment in a line: MIC, broth microdilution (CLSI). The format is cell-based. Particulars: NRS101, Table 2, TSB. The procedure:
as §1

The subject of another series is VERO cells. The experiment in a line: In vitro cytotoxicity, MTS assay. The format is cell-based, monkey. To be noted: concentration up to 128 μg/mL; two hours incubation. How it is done: Toxicity assessment: Compounds AS005H, AS005J, AS004B, AS005K, AS005A and 005D were assayed (at concentrations of 64 and 128 μg/mL) against a fibroblast-like monkey kidney cell line (VERO cell) to determine the potential toxic effect in vitro. Briefly, cells were cultured in Minimum Essential Medium (MEM) supplemented with 10% fetal bovine serum (FBS), 1 mM sodium pyruvate, and penicillin-streptomycin at 37° C. with CO2 (5%). Control cells received DMSO alone at a concentration equal to that in drug-treated cell samples. The cells were incubated with the compounds (in triplicate) in a 96-well plate at 37° C. with CO2 (5%) for two hours. The assay reagent MTS 3-(4,5-dimethylthiazol-2-yl)-5-(3-carboxymethoxyphenyl)-2-(4-sulfophenyl)-2H-tetrazolium) (Promega, Madison, WI, USA) was subsequently added and the plate was incubated for four hours. Absorbance readings (at OD490) were taken using a kinetic microplate reader (Molecular Devices, Sunnyvale, CA, USA). The quantity of viable cells after treatment with each compound was expressed as a percentage of the viability of DMSO-treated control cells (average of triplicate wells±standard deviation). The toxicity data was analyzed via a two-way ANOVA, with post hoc Dunnet's multiple comparisons test (P<0.05), utilizing GraphPad Prism 6.0 (GraphPad Software, La Jolla, CA).
Percent viable mammalian cells (measured as average absorbance ratio (test agent relative to DMSO) for cytotoxicity analysis of compounds AS005H, AS005J, AS004B, AS005K, AS005A and 005D (tested in triplicates) at 64 and 128 μg/mL against VERO cells using the MTS 3-(4,5-dimethylthiazol-2-yl)-5-(3-carboxymethoxyphenyl)-2-(4-sulfophenyl)-2H-tetrazolium) assay. Dimethyl sulfoxide (DMSO) was used as a negative control to determine a baseline measurement for the cytotoxic impact of each compound. The absorbance values represent an average of a minimum of three samples analyzed for each compound. Error bars represent standard deviation values for the absorbance values.

For series [4], the system named is Mutant-7 of Enterococcus fecalis NR 31975. In words: microbe, parasite or virus in culture. The series is classed as cell-based.
Series [5] has as its system Mutant-3 of Enterococcus fecalis NR 31975. In words: microbe, parasite or virus in culture. The series is classed as cell-based.
The subject of series [6] is Mutant-11 of Enterococcus fecalis NR 31975. In words: microbe, parasite or virus in culture. The format is cell-based.
Series [7] deals with Enterococcus fecalis Strain MMH594 - NR31975. The experiment in a line: microbe, parasite or virus in culture. The format is cell-based. Particulars: Enterococcus, Table 4; Wild-type E. fecalis NR 31975. How it is done: as §1, with “Institute (CLSI). Enterococci” for “Institute (CLSI)^1. Staphylococci”, “Table 1” for “Table 2”

Values after ≈ are worked out from the molar mass of the structure shown. Where two headings read alike, the source gives them in different places.

On to `CC(C)=CC(=O)Nc1nnc(S(N)(=O)=O)s1` [CAI0016, 3-Methyl-N-(5-sulfamoyl-1,3,4-thiadiazol-2-yl)but-2-enamide], for which the MIC in series [1] (S613HM334, Table 1, TSB) is 0.5 µg/mL (≈ 1.91 µM); in series [1] (S613HM334, Table 6, TSB in presence of 4% human serum albumin), over 256 µg/mL; in series [1] (S613HM334, Table 7, TSB), 0.25 µg/mL (≈ 0.953 µM); in series [2], over 64 µg/mL; in series [3] it was over 64 µg/mL; in series [4], 4 µg/mL (≈ 15.2 µM). The MIC in series [5] is 4 µg/mL (≈ 15.2 µM); in series [6], 4 µg/mL (≈ 15.2 µM); in series [7] it was 1 µg/mL (≈ 3.81 µM). In addition, in the series on VERO cells, the “toxicity to VERO cells (percent viable cells, MTS)” value is recorded as “non-toxic”.
